Test results from PMC4494771, “Synthesis, structure, and biological activity of novel heterocyclic sulfonyl-carboximidamides” (Monatshefte Fur Chemie, 2013).
Values after ≈ are worked out from the molar mass of the structure shown. Read-outs that look alike come from different tables or passages of the source.

Experiments:
P. acnes ATCC 11827 = experiment: Antibacterial activity, MIC in broth serial dilution; details: for MIC: Cutibacterium acnes, ATCC11827, 72 h, read-out: MIC P. acnes, P. acnes ATCC 11827, 72 h anaerobic
Method: Compounds were tested at serial dilutions in bacterial broth starting at 100 μg/cm^3 (final concentration). P. acnes (ATCC 11827, lot 419697) was grown in thioglycollate nutrient broth (Hardy Diagnostics K29) for 72 h at 33 °C, then inoculated at the density equivalent to 0.5 McFarland standard and incubated with the test materials for another 72 h in an anaerobic environment. […] At the end of the incubation the MIC was assessed optically as the lowest concentration of a test material which caused no bacteria growth [34]. This optical assessment was further confirmed by measuring the absorbance at 655 nm with the BioRad 3550-UV microplate reader. The MIC was defined as at least 50 % inhibition of the increase of OD.

[1] = tested on: Mycobacterium tuberculosis H37Rv strain; experiment: Tuberculostatic activity, classical test-tube method of successive dilution; format: cell-based
M. tuberculosis sp. 192 = experiment: as above; format: cell-based; details: Mycobacterium tuberculosis; sp. 192, fully sensitive wild strain
UO-31 = experiment: NCI-60 DTP human tumor cell line screening; format: cell-based; details: for inhibition at 10 µM: Homo sapiens
[2] = tested on: panel of 60 human tumor cell lines; experiment: NCI-60 DTP human tumor cell line screening, whole panel; details: 10 μM, mean of growth percent for all tested cell lines
[3] = tested on: neonatal human dermal fibroblasts (ATCC PCS-201-010); experiment: Cytotoxic activity, fibroblast proliferation (sulforhodamine B); format: cell-based; details: for cytotoxic activity on fibroblast proliferation: 96 h, 6.25–100 μg/cm^3
Method: Passage for normal neonatal human dermal fibroblasts (ATCC PCS-201-010, lot 58243223) were grown in DMEM with 5 % calf serum (Hyclone). For the experiment, cells were plated in DMEM/5 % serum at 2,000 cells/well in 96 well plates (plate 598) and were exposed to test materials for 96 h. MAP and bFGF were used as the positive controls and water, 1, 0.5, and 0.25 % DMSO were used as the negative controls. Plate growth was stopped and cells were stained with a sulforhodamine B dye. The dye was then dissolved and a colorimetric signal proportional to total cell/protein count was quantified with the BioRad microplate spectrophotometer 3550-UV at 570 nm with background subtraction at 660 nm and analyzed with Microplate Manager v.2 software for Macintosh (BioRad). Error bars represent standard errors of the mean (SEM). P values representing statistical significance were calculated using the t test.

MALME-3M = experiment: NCI-60 DTP human tumor cell line screening; format: cell-based; details: Homo sapiens; one dose 10 μM, Melanoma MALME-3M; read-out: Growth inhibition ΔGI
A498 = experiment: NCI-60 DTP human tumor cell line screening; format: cell-based; details: Homo sapiens; one dose 10 μM, Renal cancer A498; read-out: Growth inhibition ΔGI
SNB-75 = experiment: NCI-60 DTP human tumor cell line screening; format: cell-based; details: Homo sapiens; one dose 10 μM, CNS cancer SNB-75; read-out: Growth inhibition ΔGI
[4] = tested on: Mycobacterium tuberculosis H37Rv, sp. 210 and sp. 192; experiment: Tuberculostatic activity, three tested strains together; format: cell-based
HOP-92 = experiment: NCI-60 DTP human tumor cell line screening; format: cell-based; details: Homo sapiens; one dose 10 μM, Non-small cell lung cancer HOP-92; read-out: Growth inhibition ΔGI
NCI-H522 = experiment: NCI-60 DTP human tumor cell line screening; format: cell-based; details: Homo sapiens; one dose 10 μM, Non-small cell lung cancer NCI-H522; read-out: Growth inhibition ΔGI
[5] = UO-31, one dose 10 μM, Renal cancer UO-31, read-out: Growth inhibition ΔGI

Compound	melting point	MIC (P. acnes ATCC 11827) [µg/mL]	MIC [1] [µg/mL]	MIC (M. tuberculosis sp. 192) [µg/mL]	Growth percent mean values (MG_MID) [2] [%]	other results
NC(=NS(=O)(=O)c1cnccc1Cl)c1ccncc1 [Compound 6, N′-[(4-Chloropyridin-3-yl)sulfonyl]-4-pyridinecarboximidamide]	215 to 218 °C	> 100	–	–	–	–
NC(=NS(=O)(=O)c1cnccc1Cl)c1ncccn1 [Compound 8, N′-[(4-Chloropyridin-3-yl)sulfonyl]pyrimidine-2-carboximidamide]	162 to 163 °C	> 100	50 (≈ 168 µM)	50 (≈ 168 µM)	–	–
NC(=NS(=O)(=O)c1ccccc1Cl)c1cnccn1 [Compound 9, N′-[(2-Chlorophenyl)sulfonyl]pyrazine-2-carboximidamide]	173 to 174 °C	> 100	–	–	–	–
NC(=NS(=O)(=O)c1ccccc1Cl)c1ncccn1 [Compound 7, N′-[(2-Chlorophenyl)sulfonyl]pyrimidine-2-carboximidamide]	–	> 100	50 (≈ 168 µM)	50 (≈ 168 µM)	103.0	inhibition at 10 µM (UO-31; [5]): 19.4%
NC(=NS(=O)(=O)c1ccccc1Cl)c1ccccn1 [Compound 1, N′-[(2-Chlorophenyl)sulfonyl]-2-pyridinecarboximidamide]	140 to 142 °C	12.5 to 50 (≈ 42.3 to 169 µM)	–	–	–	growth inhibitory activity ([3]; 100 μg/cm^3): 88%; cytotoxic effect ([3]; 6.25–12.5 μg/cm^3): no cytotoxic effect was evident; cytotoxic activity on fibroblast proliferation [3]: weak inhibitory activity; MIC P. acnes (P. acnes ATCC 11827; P. acnes ATCC 11827, 72 h anaerobic): 25 µg/mL (≈ 84.5 µM)
COc1cncc(C(N)=NS(=O)(=O)c2ccccc2Cl)n1 [Compound 13, N′-(2-Chlorophenylsulfonyl)-6-methoxypyrazine-2-carboximidamide]	227 to 230 °C	> 100	–	–	–	–
NC(=NS(=O)(=O)c1ccccc1Cl)c1ccncc1 [Compound 5, N′-[(2-Chlorophenyl)sulfonyl]-4-pyridinecarboximidamide]	182 to 185 °C	> 100	–	–	–	–
NC(=NS(=O)(=O)c1cnccc1Cl)c1ccccn1 [Compound 2, N′-[(4-Chloropyridin-3-yl)sulfonyl]-2-pyridinecarboximidamide]	–	–	50 (≈ 168 µM)	50 (≈ 168 µM)	98.2	cytotoxic activity on fibroblast proliferation [3]: no cytotoxic activity; inhibition at 10 µM (UO-31; UO-31, read-out: Growth inhibition ΔGI): 20.4%
N/C(=N\S(=O)(=O)c1ccccc1Cl)c1cccnc1 [Compound 3, (Z)-N′-[(2-Chlorophenyl)sulfonyl]-3-pyridinecarboximidamide]	188 to 190 °C	> 100	–	–	–	–
NC(=NS(=O)(=O)c1ccccc1Cl)c1cncc(Cl)n1 [Compound 11, 6-Chloro-N′-(2-chlorophenylsulfonyl)pyrazine-2-carboximidamide]	–	> 100	–	–	102.1	inhibition at 10 µM (MALME-3M): 22.6%; inhibition at 10 µM (UO-31; [5]): 19.4 to 21.1%; Growth inhibition ΔGI (UO-31; one dose 10 μM, Renal cancer UO-31): 22.6%
N/C(=N\S(=O)(=O)c1cnccc1Cl)c1cccnc1 [Compound 4, (Z)-N′-[(4-Chloropyridin-3-yl)sulfonyl]-3-pyridinecarboximidamide]	–	> 100	–	–	104.8	inhibition at 10 µM (MALME-3M): 20%; inhibition at 10 µM (A498): 24.1%
NC(=NS(=O)(=O)c1cnccc1Cl)c1cnccn1 [Compound 10, N′-[(4-Chloropyridin-3-yl)sulfonyl]pyrazine-2-carboximidamide]	–	> 100	50 (≈ 168 µM)	25 (≈ 84 µM)	101.9	inhibition at 10 µM (SNB-75): 19.3%
NC(=NS(=O)(=O)c1cnccc1Cl)c1ccc2ccccc2n1 [Compound 16, N′-[(4-Chloropyridin-3-yl)sulfonyl]quinoline-2-carboximidamide]	–	> 100	–	–	–	–
NNC(=O)c1ccncc1 [INH, isoniazid, reference compound]	–	–	0.5 (≈ 3.65 µM)	0.5 (≈ 3.65 µM)	–	MIC [4]: 0.5 to 1 µg/mL (≈ 3.65 to 7.29 µM)
COc1cncc(C(N)=NS(=O)(=O)c2cnccc2Cl)n1 [Compound 14, N′-[(4-Chloropyridin-3-yl)sulfonyl]-6-methoxypyrazine-2-carboximidamide]	265 to 270 °C (dec.)	> 100	–	–	–	–
NC(=NS(=O)(=O)c1cnccc1Cl)c1cncc(Cl)n1 [Compound 12, 6-Chloro-N′-[(4-chloropyridin-3-yl)sulfonyl]pyrazine-2-carboximidamide]	–	> 100	–	–	97.8	inhibition at 10 µM (HOP-92): 25.9%; inhibition at 10 µM (NCI-H522): 143%
